Here are results for 2 compounds from paper PMC8555409 (Journal of medicinal chemistry, 2021).

One assay has as its system EphA4. Conditions: cited from earlier work.
Assay [1] has as its system motor neurons co-cultured with iAstrocytes derived from sALS patients. The class given is cell-based, mouse. Conditions: 100 μM, 3 days co-culture.
For assay [2], the system named is SOD1(G93A) transgenic mice. The conditions noted are these: daily in vivo administration; cited from earlier work.
The target of a further assay is EphA4-LBD (Homo sapiens, UniProt P54764, C204A). Briefly: 2D [13C,1H] NMR chemical shift perturbations with 13Cε-Met labeled EphA4-LBD.
EphA4-LBD, sequence (P54764 29-209 C204A): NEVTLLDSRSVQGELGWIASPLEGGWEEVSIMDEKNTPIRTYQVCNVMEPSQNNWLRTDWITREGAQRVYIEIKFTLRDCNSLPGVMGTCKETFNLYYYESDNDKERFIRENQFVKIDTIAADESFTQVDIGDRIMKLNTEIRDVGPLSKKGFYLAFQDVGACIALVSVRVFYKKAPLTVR

What is called Kd is a measure of binding affinity in units of concentration.

Non-standard residues stand in square brackets, D forms with d. Residues, ends and D or L forms follow the SMILES beside them. *: point of attachment. Cyclohexanoyl(1S,3S-3-NH2) = N[C@H]1CCC[C@H](C(=O)*)C1; Trp(5-OH) = N[C@@H](Cc1c[nH]c2ccc(O)cc12)C(=O)O; NH(4-morpholinophenyl) = c1cc(N2CCOCC2)ccc1N*; Bip = N[C@@H](Cc1ccc(-c2ccccc2)cc1)C(=O)O; hArg = N=C(N)NCCCC[C@H](N)C(=O)O

Consider `COc1ccc2[nH]cc(CCNC(=O)[C@H](Cc3ccncc3)NC(=O)[C@H](Cc3ccc(Cl)cc3)NC(=O)[C@H](Cc3c[nH]c4ccc(O)cc34)NC(=O)CCCN)c2c1` [123C4], for which the “agonistic activity for EphA4 in primary cortical neurons” value in the assay on EphA4 was “induced receptor phosphorylation and growth cone collapse”. Moreover, the “protection of motor neurons from sALS iAstrocytes (motor neuron survival)” value in assay [1] is on record as “able to protect mouse motor neurons”. In addition, the survival result in assay [2] was “significantly prolonged survival”.

As for `N=C(N)NCCCC[C@H](NC(=O)[C@H](Cc1ccc(-c2ccccc2)cc1)NC(=O)[C@H](Cc1c[nH]c2ccc(O)cc12)NC(=O)[C@H]1CCC[C@H](N)C1)C(=O)NCC(=O)Nc1ccc(N2CCOCC2)cc1` [compound 33] ({Cyclohexanoyl(1S,3S-3-NH2)}-[Trp(5-OH)][Bip][hArg]G-{NH(4-morpholinophenyl)}), the equilibrium dissociation constant (Kd) at EphA4-LBD was less than 60 nM.
